The record followed here is publication PMC9694334, “Synthesis and Biological Evaluation of a Fused Structure of Indolizine and Pyrrolo[1,2-c]pyrimidine: Identification of Its Potent Anticancer Activity against Liver Cancer Cells” (Pharmaceuticals, 2022).

Test [1] concerns HepG2 cells. Description: Cell viability assay (MTS) in HepG2 cells. Type of test: cell-based. The following applies: Homo sapiens, MTS, mean, n = 5, 72 h for 5r (Figure 2).
In the next test the test system is H1299 cells. Put plainly: Cell viability assay (MTS) in H1299 cells. The class given is cell-based. The following applies: 72 h, MTS, Figure 2D. As for the experimental part: (§1) HepG2, Huh7, H1299, HT29, AGS and A549 cells were purchased from the Korean Cell Line Bank (Seoul, Korea) and HaCaT cells were obtained from Prof. Sohee Kwon (Yonsei University, Korea). Liver cancer cells (HepG2), human keratinocyte cells (HaCaT), and lung cancer cells (A549) were grown in DMEM high-glucose medium, liver cancer cells (Huh7) and non-small cell lung cancer cells (H1299) were grown in RPMI 1640, and gastric cancer cells (AGS) were grown in Coon’s modified F12 medium. All media were supplemented with 10% FBS, 100 Units/mL penicillin, and 100 μg/mL streptomycin. All cells were incubated at 37 °C, 5% CO2 and 95% humidity.
(§2) Cell viability assay was conducted using Cell Titer 96® AQueous One Solution Cell proliferation Assay kit (Promega, Madison, WI, USA). Five cancer cells and HaCaT cells were plated in 96-well microplates with growth medium for 24 h. When cell confluency reached ~30%, cells were treated with DMSO (vehicle) and test compounds. The medium and test compounds were replaced every 24 h. To measure cell viability, the cells were incubated with MTS solution for 1 h. The absorbance was measured by using Infinite M200 microplate reader (Tecan, Männedorf, Switzerland) at 490 nm.
(§3) Figure 2 Effect of 5r on cell viability in HepG2, Huh7, AGS, H1299, A549, HaCaT, NIH3T3, and HEK293T cells. (A–H) HepG2, Huh7, AGS, H1299, A549, HaCaT, NIH3T3, and HEK293T cells were cultured with 5r at the indicated concentrations for 72 h, and medium was replaced every 24 h with freshly added 5r. Cell viability was measured by MTS analysis (mean ± S.D., n = 5). * p < 0.05, ** p < 0.01, *** p < 0.001.

The subject of a further test is AGS cells. Put plainly: Cell viability assay (MTS) in AGS cells. Type of test: cell-based. The settings on record: 72 h, MTS, Figure 2C. The procedure: as §1, §2, §3
Test [2] relates to Huh7 cells. Put plainly: Cell viability assay (MTS) in Huh7 cells. The class given is cell-based. The following applies: Homo sapiens, Huh-7, mean, n = 5, 72 h for 5r (Figure 2). The procedure: as §1, §2, §3
In the next test the test system is HaCaT cells. Put plainly: Cell viability assay (MTS) in HaCaT cells. The class given is cell-based, human. The procedure:
as §1, §2, §3

For the next test, the system named is HEK293T cells. Description: Cell viability assay (MTS) in HEK293T cells. The settings on record: 72 h, Figure 2H. The class given is cell-based. The procedure:
as §2, §3

Test [3] deals with HepG2 cells. Description: In vitro wound-healing assay in HepG2 cells. The class given is cell-based. The following applies: Figure 3. The procedure: The suppressive effect of 5r on cell migration was assessed through in vitro wound-healing assay. HepG2 and Huh7 cells were grown to approximately 100% confluence to form a monolayer in a 96-well microplate. Wounds were formed through 96-well wound maker (Essen BioScience, Ann Arbor, MI, USA). Then, growth medium was removed and washed out twice with phosphate-buffered saline (PBS) and incubated with 200 μL of DMEM and RPMI 1640 medium containing 5r or vehicle (DMSO). Images of the wound area were taken by using IncuCyte ZOOM (Essen BioScience, Ann Arbor MI, USA), and the percentage of wound closure was measured by using IncuCyte software.
Figure 3 Inhibitory effect of 5r on cell migration in HepG2 and Huh7 cells. (A,B) In vitro wound-healing assay was performed in HepG2 and Huh7 cells (mean ± S.D., n = 3). HepG2 and Huh7 cells were treated with the indicated concentrations of 5r, and time-lapse images were acquired every 2 h after wound infliction. (C,D) Representative images were taken at 0, 48, or 72 h following administration of 5r at the indicated concentrations.

Another test concerns caspase-3. Put plainly: Caspase-3 activity assay in HepG2 cells. The class given is cell-based. The settings on record: 3 µM 5r for 24 h, Figure 4A. As for the experimental part: HepG2 and Huh7 cells were plated in 96-black-well plate to about 40% confluence, and then 5r was treated for 24 h. To assess activity of caspase-3, the growth medium was changed with 100 μL of PBS containing 1 μM caspase-3 substrate, NucView 488, and incubated at room temperature. After 20 min, 1 μM Hoechst 33342 was treated to stain the cells. Activity of caspase-3 was suppressed by Ac-DEVD-CHO, a selective caspase-3 inhibitor. FLUOstar Omega microplate reader (BMG Labtech, Ortenberg, Germany) was used to assess the fluorescence of NucView 488 and Hoechst, and Lionheart FX Automated Microscope (BioTek, Winooski, VT, USA) was used to acquire the fluorescence microscopy images.
Figure 4 Effect of 5r on activity of caspase-3 and cleavage of PARP in HepG2 and Huh7 cells. (A,B) HepG2 and Huh7 cells were incubated with 3 µM 5r for 24 h and then incubated with 1 µM caspase-3 substrate (green) and 1 µM Hoechst 33,342 (blue) for 20 min before image acquisition. (C,D) Cells were cultured with 5r at the indicated concentrations for 24 h and then 1 μM caspase-3 substrate was treated for 20 min. Caspase-3 was inhibited by 20 μM Ac-DEVD-CHO (mean ± S.D., n = 3). (E,F) Cells were cultured with 5r at the indicated concentrations for 24 h, and expression level of PARP, cleaved-PARP and β-actin were measured by Western blot analysis. […]

The test system of test [4] is HepG2 cells. Description: Flow cytometry cell cycle analysis (propidium iodide) in HepG2 cells. The class given is cell-based. The settings on record: 3 µM 5r for 24 h. As for the experimental part:
HepG2 cells were grown to approximately 40% confluence in a 6-well plate and then 5r was treated for 24 h. After 24 h, HepG2 cells were washed out twice with PBS and centrifuged at 1000 RPM for 2 min at room temperature. The cells were stained with propidium iodide for 15 min and then cell cycle phases were measured by using FACS (Beckman Coulter, Fullerton, CA, USA).
Figure 5 Effect of 5r on cell cycle in HepG2 cells. (A,B) HepG2 cells were treated with 3 µM 5r for 24 h and then cell cycle phases were measured by propidium iodide staining, followed by flow cytometry analysis.
(In general: A flow cytometer gives signals particle by particle.)

The subject of test [5] is HepG2 cells. Put plainly: Combination of 5r with gemcitabine, cell viability (MTS) in HepG2 cells. The class given is cell-based. The settings on record: co-treatment with gemcitabine (0.3 μM), 72 h. The procedure:
as §2
(§4) Figure 6 Combination effect of 5r and gemcitabine on cell viability in HepG2 and Huh7 cells. (A,B) HepG2 and Huh7 cells were cultured with the indicated concentrations of 5r and gemcitabine (0.3 μM) for 72 h, and medium was replaced every 24 h with freshly added 5r and gemcitabine. Cell viability was determined by MTS analysis (mean ± S.D., n = 5). ** p < 0.01, *** p < 0.001.

Test [6] concerns Huh7 cells. Description: Combination of 5r with gemcitabine, cell viability (MTS) in Huh7 cells. The class given is cell-based. The settings on record: co-treatment with gemcitabine (0.3 μM), 72 h. The procedure: as §2, §4

As for `N#Cc1c2c3cccn3c(-c3ccccc3O)nc2n2ccccc12` [Compound 5r, 5-(2-Hydroxyphenyl)pyrrolo[1′,2′:1,6]pyrimido[5,4-b]indolizine-12-carbonitrile], the IC50 with HepG2 cells [1] came out at 0.22 µM; in the test on Huh7 cells [2] it was 0.1 µM; in the test with HaCaT cells (Homo sapiens, mean, n = 5) it was 6.91 µM. For the same compound, in the test with H1299 cells, the “Effect on cell viability in H1299 cells” value is “weak effect”. Moreover, in the test on AGS cells, the “Effect on cell viability in AGS cells” value was “weak effect”. For the same compound, in the test on HaCaT cells (72 h, Figure 2F), the “Effect on cell viability in non-cancerous HaCaT cells” value is “weakly decreased cell viability”. Further, the “Effect on cell viability in non-cancerous HEK293T cells” value in the test on HEK293T cells was “weakly decreased cell viability”. The “Effect on cell migration (wound closure) in HepG2 cells” value with HepG2 cells [3] was “significantly inhibited cell migration in a dose-dependent manner”. Also, in the test on caspase-3, the “Caspase-3 activity in HepG2 cells” value is “potently increased caspase-3 activity”. Also, the “Ratio in the G2/M phase” value in the test on HepG2 cells [4] is given as “did not affect”. Besides, the “Sub-G1 (apoptotic peak) phase ratio” value with HepG2 cells [4] (control 24.1%) was 56.9%. The G0/G1 phase ratio in the test with HepG2 cells [4] (control 64.6%) came to 29.3%. For the same compound, the “Combination effect with gemcitabine on cell viability in HepG2 cells” value in the test with HepG2 cells [5] was “additional effect rather than a synergistic effect”. Moreover, in the test on Huh7 cells [6], the “Combination effect with gemcitabine on cell viability in Huh7 cells” value was “additional effect rather than a synergistic effect”.

Broadly, the IC50 is the midpoint of a concentration-inhibition curve.
